Laboratory results taken from patent publication US9228224B2, “Method for assaying OGFOD1 activity” (ISIS INNOVATION LIMITED, priority 2011, dated 2016).

Experiments:
OGFOD1 (hsOGFOD1_FL) = target: T1, OGFOD1 (hsOGFOD1_FL) (Homo sapiens, UniProt Q8N543); test: Thermal stability shift assay (SYPRO Orange); assay type: binding; settings: change in apparent protein melting temperature; compound 20 μM, 1 μM hsOGFOD1_FL, 50 μM MnCl2
T1 construct: His6 tag (N-terminal pET-28a leader); made in house; host or cells: E. coli BL21(DE3)
T1 sequence (Q8N543 1-542): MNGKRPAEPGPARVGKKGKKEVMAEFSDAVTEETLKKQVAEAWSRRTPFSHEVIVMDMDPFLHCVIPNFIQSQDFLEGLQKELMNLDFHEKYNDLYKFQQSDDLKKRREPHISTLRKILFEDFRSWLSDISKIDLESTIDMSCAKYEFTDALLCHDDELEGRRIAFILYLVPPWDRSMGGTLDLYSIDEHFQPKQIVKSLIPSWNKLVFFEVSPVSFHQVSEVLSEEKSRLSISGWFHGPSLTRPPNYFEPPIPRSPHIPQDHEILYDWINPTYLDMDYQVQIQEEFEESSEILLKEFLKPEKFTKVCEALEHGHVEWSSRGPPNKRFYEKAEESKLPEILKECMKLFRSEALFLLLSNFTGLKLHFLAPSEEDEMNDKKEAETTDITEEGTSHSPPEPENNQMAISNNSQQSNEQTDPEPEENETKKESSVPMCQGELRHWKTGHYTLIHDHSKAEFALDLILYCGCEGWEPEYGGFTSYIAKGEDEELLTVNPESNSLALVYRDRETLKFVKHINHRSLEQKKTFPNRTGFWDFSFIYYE
Procedure: Assays were conducted in 50 mM HEPES buffer, 150 mM NaCl, pH 7.5. A stock solution of MnCl2 (500 mM) in 20 mM HCl was prepared, and diluted to 5 mM with water. A master mix containing 2.085 mL buffer, 21 μL MnCl2 (5 mM, 50 μM final), 21 μL hsOGFOD1_FL (100 μM, 1 μM final), and 2.1 μL SYPRO Orange dye was prepared. The screen was conducted using stock solutions of compounds (400 μIM in DMSO) at a final concentration of 20 μM, by mixing 1 μL compound stock solution with 19 μL assay master mix. Incubations were performed in a white 96-well RT-PCR plate and subjected to thermal cycling as per an established protocol. Data was analysed in Microsoft Excel and GraphPad Prism.
The effect of small molecules on the stability of proteins to thermal denaturation was assessed by the change in apparent protein melting temperature, defined as the temperature at which equal amounts of folded and unfolded protein exist in solution. Unfolding was quantified by measurement of the fluorescence increase of SYPRO® Orange dye (Invitrogen) upon binding to hydrophobic residues that are exposed during unfolding. Approximately 400 small-molecule compounds were tested at a final concentration of 20 μM. Stabilization data for selected compounds are shown in below. Structures of the compounds are set out below.

OGFOD1 [1] = target: T2, OGFOD1 (Homo sapiens, UniProt Q8N543); test: MALDI-based hydroxylation assay, inhibitor screen; assay type: biochemical; settings: general statement in the description, no conditions given
T2 construct: His6 tag (N-terminal pET-28a leader); made in house; host or cells: E. coli BL21(DE3)
T2 sequence (Q8N543 1-542): T1 sequence (Q8N543 1-542)
Procedure: A library of 150 compounds comprising known and potential inhibitors of 2OG oxygenases was screened against OGFOD1 by a MALDI-based hydroxylation assay. Single-point measurements were conducted in duplicate, using 4 μM OGFOD1 at 100 μM final compound concentration in the presence of excess (300 μM) 2OG, with incubation at 37° C. for 30 min.

full-length OGFOD1 = target: T3, full-length OGFOD1 (Homo sapiens, UniProt Q8N543); test: 2OG turnover assay; assay type: biochemical; settings: 1 mM inhibitor, 37° C., 20 min
T3 construct: His6 tag (N-terminal pET-28a leader); made in house; host or cells: E. coli BL21(DE3)
T3 sequence (Q8N543 1-542): T1 sequence (Q8N543 1-542)
Procedure: Values shown are averages of two or three experiments. Error bars represent standard deviations. The assay was carried out for 20 min at 37° C. using 8 μM recombinant full-length human OGFOD1 (SEQ ID NO:1), 288 μM 2OG, 3.7 μM 1-[^14C]-2OG (specific activity […], stock concentration 1.83 mM), RPS23 peptide, 100 μM (NH4)2Fe(SO4)2, 4 mM ascorbate, 0.66 mg/ml catalase, 1 mM DTT, 50 mM Tris.HCl pH 7.5, and with one of OGFOD1, (NH4)2Fe(SO4)2 and ascorbate missing from the assay. The assay was also performed in the presence of 1 mM pyridine 2,4-dicarboxylic acid (2,4-PDCA).
Constructs of OGFOD1 encoding full-length protein or its C-terminal domain were tested for enzymatic activity using a 2OG turnover assay (Kivirikko and Myllyla (1982) Methods in Enzymology 82: […]). […]
These were diluted to a total volume of 100 μl with 50 mM Tris-Cl buffer, pH 7.5. […] The Eppendorf tubes containing the hyamine hydroxide were transferred to scintillation vials, mixed with 5 mL OptiPhase Liquid Scintillation Cocktail (Fisher Scientific) and total ^14C counts quantified using a Beckman LS6500 Multi-Purpose Scintillation Counter. Conversion of 2OG was calculated from the percentage of 1-[^14C]-2OG that had been converted into gaseous ^14CO2. […]

OGFOD1 [2] = target: T2, OGFOD1; test: OGFOD1-mediated hydroxylation of RPS23 20mer peptide with generic 2OG oxygenase inhibitors; assay type: biochemical; settings: 1 mM inhibitor
Procedure: OGFOD1-mediated hydroxylation of the initially identified 20mer peptide sequence of human RPS23 was strictly dependent on presence of 2OG and Fe(II), and hydroxylation was reduced in presence of 1 mM of generic 2OG oxygenase inhibitors such as N-oxalyl glycine (NOG), pyridine 2,4-dicarboxylic acid (2,4-PDCA) and transition metal ions such as Co^II.

OGFOD1 [3] = target: T2, OGFOD1; test: MALDI assay of OGFOD1 specificity towards RPS23 and RPS23-like peptides; assay type: biochemical; settings: peptide as substrate; 4 μM OGFOD1/100 μM peptide, 37° C., 30 min; symbols not defined
Procedure: To investigate the specificity of OGFOD1 towards variations in the sequence and length, multiple corresponding to RPS23 and RPS23-like sequences were synthesized and tested. MALDI assays were performed using a 1:25 protein:peptide (4 μM/100 μM) ratio, with incubation at 37° C. for 30 min.
Mutation of prolyl to alanine or isoleucine residues completely abolished hydroxylation, providing further evidence for OGFOD1 acting as a prolyl hydroxylase. […] This observation is consistent with the high evolutionary conservation of the amino acids following, but not of those preceding the prolyl (Pro-62) residue in RPS23.

Row | Compound | Stabilization (° C.) (OGFOD1 (hsOGFOD1_FL)) | further results
1 | O=C(O)CCC(=O)Nc1cc2ccccc2cn1 [Compound 1] | +8.4 °C | –
2 | O=C(O)CCC(=O)NNC(=O)c1ccc2ccccc2c1 [Compound 2] | +7.1 °C | –
3 | O=C(O)CCC(=O)NNS(=O)(=O)c1ccccc1 [Compound 3] | +7.1 °C | –
4 | O=C(O)CNC(=O)c1nc(Cl)c2ccccc2c1O [Compound 4, 2-(1-Chloro-4-hydroxyisoquinoline-3-carboxamido)acetic acid] | +7.0 °C | inhibition of OGFOD1 prolyl hydroxylase activity (OGFOD1 [1]): inhibit OGFOD1; inhibition of OGFOD1 prolyl hydroxylase activity (OGFOD1 [1]; listed as FG2216): inhibitory
5 | O=C(O)c1ccnc(-c2cc(C(=O)O)ccn2)c1 [Compound 5] | +7.5 °C | –
6 | O=C(O)CCC(=O)Nc1ccc(Br)cn1 [Compound 6] | +7.0 °C | –
7 | N#Cc1ccc2c(=O)c(C(=O)O)c[nH]c2c1 [Compound 7] | +7.5 °C | –
8 | CCC(=O)C1C(=O)CC(C(=O)O)CC1=O (centres unmarked) [Compound 8, Prohexadione] | +6.9 °C | –
9 | CC(NC(=O)C(=O)O)C(=O)O (centres unmarked) [Compound 9] | +6.3 °C | –
10 | O=C(O)CCNC(=O)c1nc2ccccc2cc1O [Compound 10] | +7.2 °C | –
11 | O=C(O)c1ccnc(C(=O)O)c1 [Compound 11, Pyridine 2,4-dicarboxylic acid] | +6.7 °C | inhibition of OGFOD1 prolyl hydroxylase activity (OGFOD1 [1]): inhibitory; OGFOD1-catalyzed 2OG turnover (full-length OGFOD1): inhibited; hydroxylation of RPS23 20mer peptide (OGFOD1 [2]): reduced
12 | O=C(O)CNC(=O)C(=O)O [N-oxalylglycine] | – | inhibition of OGFOD1 prolyl hydroxylase activity (OGFOD1 [1]): inhibitory; hydroxylation of RPS23 20mer peptide (OGFOD1 [2]): reduced
13 | O=C(O)c1cc(O)c(O)c(O)c1 [gallic acid] | – | inhibition of OGFOD1 prolyl hydroxylase activity (OGFOD1 [1]): inhibitory
14 | CODD: PHD2 C-terminal oxygen-dependent degradation domain (CODD) substrate of HIF-1α | – | Hydroxylation (OGFOD1 [3]): No hydroxylation
